US20090093423A2, “NOVEL 2-SUBSTITUTED METHYL PENAM DERIVATIVES” (Orchid Chemicals and Pharmaceuticals Limited, priority 2006, published 2009)

Assays:
[1] = system: A. baumani MRO 14512; assay: MIC, Agar Dilution Method, resistant clinical isolate; assay type: cell-based
Experimental: (§1) The novel compounds were tested for the in vitro antibacterial activities by the Agar Dilution Method as specified in documents published by NCCLS, now CLSI, USA. (National Committee for Clinical Laboratory Standards (NCCLS). 2003. Approved standard M7-A6. NCCLS, Villanova, Pa.).
(§2) Tazo was also dissolved in same buffer to get a solution of, e.g., 1 mg/mL. Novel penam derivatives described herein were dissolved in water to get a solution of, e.g., 1 mg/mL.
(§3) The novel compounds and Tazo were also tested individually. The bacterial inoculum was prepared by picking 3 to 5 well-isolated bacterial colonies with the same morphological appearance from an 18-24 h old culture and adjusting the turbidity of the saline suspension to 0.5 McFarland Turbidity Standard equivalent to a bacterial population of 1.5×10^8 colony forming units (CFU) per mL of suspension. The suspension was diluted 1:10 in saline (i.e. 0.5 mL suspension+4.5 mL saline) to get a bacterial population of 1.5×10^7 CFU/mL as inoculum. […] The inoculated petridishes were incubated at 35° C. in an ambient atmosphere for 16-20 h.

[2] = system: A. baumani MRO 14514; assay: as above; assay type: cell-based
Experimental: as §1, §2, §3

[3] = system: A. baumani MRO 14515; assay: as above; assay type: cell-based
Experimental: as §1, §2, §3

[4] = system: E. coli MRO 10135; assay: as above; assay type: cell-based
Experimental: as §1, §2, §3

[5] = system: strains resistant to Fluoroquinolones; settings: Kriengkauykiat et al. 2005; cited from earlier work
[6] = system: K. pneumoniae ATCC 700603; assay: MIC, Agar Dilution Method; assay type: cell-based; settings: K. pneumoniae 700603, SHV-18
Experimental: as §1, §2, §3

[7] = system: K. pneumoniae MRO 11008; assay: MIC, Agar Dilution Method; assay type: cell-based; settings: ESBL producing K. pneumoniae strain; inhibitor 1 μg/mL
Experimental: as §1, §2, §3

[8] = system: E. coli BAA-196 (TEM-10); assay: MIC, Agar Dilution Method, ESBL producing ATCC isolate; assay type: cell-based; settings: inhibitor 4 μg/mL
Experimental: as §1, §2, §3

[9] = system: E. coli BAA-197 (TEM-12); assay: as above; assay type: cell-based; settings: inhibitor 4 μg/mL
Experimental: as §1, §2, §3

[10] = system: E. coli BAA-198 (TEM-26); assay: as above; assay type: cell-based
Experimental: as §1, §2, §3

[11] = system: E. coli BAA-199 (SHV-3); assay: as above; assay type: cell-based
Experimental: as §1, §2, §3

[12] = system: E. coli BAA-200 (SHV-4); assay: as above; assay type: cell-based; settings: for potentiation of Piperacillin compared to Tazo: SHV-4 ESBL producing strain
Experimental: as §1, §2, §3

[13] = system: E. coli BAA-201 (TEM-3); assay: as above; assay type: cell-based
Experimental: as §1, §2, §3

[14] = system: E. coli BAA-202 (SHV-1); assay: as above; assay type: cell-based
Experimental: as §1, §2, §3

[15] = system: K. pneumoniae 51503 (TEM-10 & -12); assay: as above; assay type: cell-based; settings: inhibitor 4 μg/mL
Experimental: as §1, §2, §3

[16] = system: P. mirabilis BAA-663 (TEM-89); assay: as above; assay type: cell-based
Experimental: as §1, §2, §3

[17] = target: Penicillinase enzyme; assay: β-Lactamase assay (Centa substrate); assay type: biochemical; settings: FIG. 1
Experimental: Representative novel compounds were subjected to β-lactamase assay to determine and compare their IC50 with that of Tazo as described elsewhere (Bebrone et. al, 2001, Antimicrob. Agents. Chemother. 45(6): 1868-1871; Jamieson et. al, 2003, Antimicrob. Agents. Chemother. 47(5): 1652-1657). Briefly enzyme inhibition assays with Tazo acid as the standard inhibitor for % inhibitions & IC50 value with optimized concentrations of Penicillinase enzyme & Centa β-lactamase substrate were performed.

[18] = Minimum bactericidal studies, broth macrodilution; assay type: cell-based
Experimental: Minimum bactericidal studies were performed by broth macrodilution technique as described by NCCLS.

[19] = Intravenous pharmacokinetics in mice; assay type: in vivo, Swiss mice
Excerpt: Blood samples were collected at different time points. These samples were processed and analyzed by HPLC.

[20] = Possibility of conversion of Example 1 to Tazo, LC-MS/MS of plasma; assay type: in vivo; settings: Swiss mice, 8 mg/kg along with Piperacillin (32 mg/kg)
Experimental: Blood samples were collected at different time points. These samples were processed and analyzed by LC-MS/MS, which has the capability of simultaneously detecting even the lower concentration of Tazo (20 ng/mL) and the compound obtained from Example 1 (10 ng/mL).

[21] = system: strains producing the TEM type ESBLs (TEM-10, TEM-12 and TEM-10 and -12); assay: MIC, Agar Dilution Method, TEM panel; assay type: cell-based; settings: TEM-10, TEM-12 and TEM-10 and -12 strains; inhibitor 1 μg/mL and 2 μg/mL
Experimental: as §1, §2, §3

[22] = system: strains resistant to Ceftazidime, Ciprofloxacin, and Piperacillin/Tazo combination; assay: MIC, Agar Dilution Method, resistant panel; assay type: cell-based
Experimental: as §1, §2, §3

[23] = system: E. coli MRO 10006; assay: In vivo efficacy, infected mice; settings: Swiss albino mice infected with E. coli MRO 10006; Piperacillin:inhibitor 4:1; 7-day survival
Experimental: (§4) The efficacy studies were performed as described earlier (Kuck et al, 1989, Antimicrob. Agents. Chemother. 33(11): 1964-1969). Briefly, Swiss albino mice, 20+2 g, from in-house breeding facility were challenged by the intraperitoneal injection of bacterial suspensions in 0.5 mL of hog gastric mucin (10 to 100 50% lethal doses). […] All the untreated control animals died within 48 h of infection. In each experiment, in-house Tazo was used as an inhibitor control in four doses. Median (50%) effective dose (ED50) were determined by applying the Reed and Muench's method of the 7-day survival ratios.

[24] = system: E. coli MRO 10007; assay: In vivo efficacy, infected mice; settings: Swiss albino mice infected with E. coli MRO 10007; Piperacillin:inhibitor 4:1; 7-day survival
Experimental: as §4

[25] = system: ESBL producing E. coli strains; assay: In vivo efficacy, infected mice
Experimental: as §4

[26] = system: K. pneumoniae MRO 11008; assay: In vivo efficacy, infected mice
Experimental: as §4

SMILES: CC(C)(O/N=C(\C(=O)N[C@@H]1C(=O)N2C(C(=O)[O-])=C(C[n+]3ccccc3)CS[C@H]12)c1csc(N)n1)C(=O)O [Ceftazidime]
- MIC (antibiotic alone) [1]: >64 µg/mL
- MIC (antibiotic alone) [2]: >64 µg/mL
- MIC (antibiotic alone) [3]: >64 µg/mL
- MIC (antibiotic alone) [4]: >64 µg/mL
- cross-resistance of strains resistant to Fluoroquinolones [5]: 76%

SMILES: C[n+]1ccn(C[C@@]2(C)[C@H](C(=O)[O-])N3C(=O)C[C@H]3S2(=O)=O)n1 [Example 1, 1-{[(2S,3S,5R)-2-Carboxy-3-methyl-4,4,7-trioxo-4-thia-1-azabicyclo[3.2.0]hept-3-yl]methyl}-3-methyl-1H-1,2,3-triazol-3-ium]
- MIC of Piperacillin with different concentrations of Tazo or compound of Example 1 ([6]; inhibitor 2 μg/mL): 16 µg/mL
- MIC of Piperacillin with different concentrations of Tazo or compound of Example 1 ([6]; inhibitor 4 μg/mL): 16 µg/mL
- in vitro potentiation of Piperacillin [7]: 16 fold
- MIC of Piperacillin with different concentrations of Tazo or compound of Example 1 [8]: 4 µg/mL
- MIC of Piperacillin with different concentrations of Tazo or compound of Example 1 [9]: 4 µg/mL
- MIC of Piperacillin with different concentrations of Tazo or compound of Example 1 ([10]; inhibitor 1 μg/mL): 4 µg/mL
- MIC of Piperacillin with different concentrations of Tazo or compound of Example 1 ([10]; inhibitor 2 μg/mL): 4 µg/mL
- MIC of Piperacillin with different concentrations of Tazo or compound of Example 1 ([10]; inhibitor 4 μg/mL): 2 µg/mL
- potentiation of Piperacillin compared to Tazo ([11]; SHV-3 ESBL producing strain, inhibitor 1 μg/mL): > 16 fold
- potentiation of Piperacillin compared to Tazo ([11]; SHV-3 ESBL producing strain, inhibitor 2 μg/mL): > 32 fold
- potentiation of Piperacillin compared to Tazo (in words) ([11]; SHV-3 producing strain as printed (second mention), inhibitor 4 μg/mL): comparable with Tazo
- potentiation of Piperacillin compared to Tazo ([11]; SHV-3 producing strain, inhibitor 4 μg/mL): > 64 fold
- MIC of Piperacillin with different concentrations of Tazo or compound of Example 1 ([12]; E. coli BAA-200, SHV-4, inhibitor 4 μg/mL): 2 µg/mL
- potentiation of Piperacillin compared to Tazo ([12]; inhibitor 1 μg/mL): > 16 fold
- potentiation of Piperacillin compared to Tazo ([12]; inhibitor 2 μg/mL): > 32 fold
- MIC of Piperacillin with different concentrations of Tazo or compound of Example 1 ([13]; inhibitor 1 μg/mL): 4 µg/mL
- MIC of Piperacillin with different concentrations of Tazo or compound of Example 1 ([13]; inhibitor 2 μg/mL): 2 µg/mL
- MIC of Piperacillin with different concentrations of Tazo or compound of Example 1 ([13]; inhibitor 4 μg/mL): 2 µg/mL
- MIC of Piperacillin with different concentrations of Tazo or compound of Example 1 ([14]; inhibitor 1 μg/mL): >128 µg/mL
- MIC of Piperacillin with different concentrations of Tazo or compound of Example 1 ([14]; inhibitor 2 μg/mL): >128 µg/mL
- MIC of Piperacillin with different concentrations of Tazo or compound of Example 1 ([14]; inhibitor 4 μg/mL): >128 µg/mL
- MIC of Piperacillin with different concentrations of Tazo or compound of Example 1 [15]: 8 µg/mL
- MIC of Piperacillin with different concentrations of Tazo or compound of Example 1 ([16]; inhibitor 1 μg/mL): 16 µg/mL
- MIC of Piperacillin with different concentrations of Tazo or compound of Example 1 ([16]; inhibitor 2 μg/mL): 8 µg/mL
- MIC of Piperacillin with different concentrations of Tazo or compound of Example 1 ([16]; inhibitor 4 μg/mL): 8 µg/mL
- MIC of Piperacillin in combination with 4 μg/mL inhibitor ([1]; Pip + 4 μg/mL inhibitor): 4 µg/mL
- MIC of Piperacillin in combination with 4 μg/mL inhibitor ([2]; Pip + 4 μg/mL inhibitor): 32 µg/mL
- MIC of Piperacillin in combination with 4 μg/mL inhibitor ([3]; Pip + 4 μg/mL inhibitor): 32 µg/mL
- MIC of Piperacillin in combination with 4 μg/mL inhibitor ([4]; Pip + 4 μg/mL inhibitor): 16 µg/mL
- IC50 compared with Tazo [17]: three-fold lower
- Minimum bactericidal concentration study, Piperacillin in combination with inhibitor [18]: bacteriostatic
- C0 ([19]; Swiss, mouse, in vivo, iv, 8 mg/kg): 15200 ng/mL
- AUC(0-t) ([19]; Swiss, mouse, in vivo, iv, 8 mg/kg, read-out: AUC0-4 h): 5370 ng·h/mL
- AUC ([19]; Swiss, mouse, in vivo, iv, 8 mg/kg, read-out: AUC0-∝): 5830 ng·h/mL
- half-life ([19]; Swiss, mouse, in vivo, iv, 8 mg/kg, read-out: Elimination half-life (converted)): 16.3 min
- systemic exposure ([19]; mice, intravenous, compared with Tazo): higher than that of Tazo
- conversion to Tazo after intravenous administration (LC-MS/MS of plasma) [20]: did not get converted to Tazo
- potentiation of Piperacillin compared to Tazo [21]: 2-16 fold
- potentiated the antibacterial activity of Piperacillin compared to that of Tazo ([22]; inhibitor 4 μg/mL, strains resistant to Ceftazidime and Ciprofloxacin): 2-16 fold
- susceptibility of resistant strains to Piperacillin in combination ([22]; strains resistant to Ceftazidime, Ciprofloxacin, and Piperacillin/Tazo combination): susceptible
- ED50 of Piperacillin in combination with inhibitor [23]: 22.62 mg/kg b.w.
- ED50 of Piperacillin in combination with inhibitor [24]: 24.88 mg/kg b.w.
- ED50 of Piperacillin in combination, compared to that in combination with Tazo [25]: two-fold lower
- ED50 of Piperacillin in combination with inhibitor ([26]; Swiss albino mice infected with K. pneumoniae MRO 11008, Piperacillin:inhibitor 4:1, 7-day survival): 34.89 mg/kg b.w.
- increase of efficacy of Piperacillin ([26]; mice, ESBL producing K. pneumoniae strain resistant in vitro to Piperacillin with 1 μg/mL Tazo): three-fold

SMILES: CC[n+]1ccn(C[C@@]2(C)[C@H](C(=O)[O-])N3C(=O)C[C@H]3S2(=O)=O)n1 [Example 2, 1-{[(2S,3S,5R)-2-Carboxy-3-methyl-4,4,7-trioxo-4-thia-1-azabicyclo[3.2.0]hept-3-yl]methyl}-3-ethyl-1H-1,2,3-triazol-3-ium]
- IC50 compared with Tazo [17]: three-fold lower

SMILES: CCC[n+]1ccn(C[C@@]2(C)[C@H](C(=O)[O-])N3C(=O)C[C@H]3S2(=O)=O)n1 [Example 3, 1-{[(2S,3S,5R)-2-Carboxy-3-methyl-4,4,7-trioxo-4-thia-1-azabicyclo[3.2.0]hept-3-yl]methyl}-3-n-propyl-1H-1,2,3-triazol-3-ium]
- IC50 compared with Tazo [17]: comparatively lower

SMILES: C=CC[n+]1ccn(C[C@@]2(C)[C@H](C(=O)[O-])N3C(=O)C[C@H]3S2(=O)=O)n1 [Example 4, 1-{[(2S,3S,5R)-2-Carboxy-3-methyl-4,4,7-trioxo-4-thia-1-azabicyclo[3.2.0]hept-3-yl]methyl}-3-allyl-1H-1,2,3-triazol-3-ium]
- IC50 compared with Tazo [17]: comparatively lower

SMILES: C[C@]1(Cn2cc[n+](CC(N)=O)n2)[C@H](C(=O)[O-])N2C(=O)C[C@H]2S1(=O)=O [Example 5, 1-{[(2S,3S,5R)-2-Carboxy-3-methyl-4,4,7-trioxo-4-thia-1-azabicyclo[3.2.0]hept-3-yl]methyl}-3-(2-amino-2-oxoethyl)-1H-1,2,3-triazol-3-ium]
- IC50 compared with Tazo [17]: comparatively lower

SMILES: C[C@]1(Cn2cc[n+](CC(=O)N3CCOCC3)n2)[C@H](C(=O)[O-])N2C(=O)C[C@H]2S1(=O)=O [Example 7, 1-{[(2S,3S,5R)-2-Carboxy-3-methyl-4,4,7-trioxo-4-thia-1-azabicyclo[3.2.0]hept-3-yl]methyl}-3-(2-morpholin-4-yl-2-oxoethyl)-1H-1,2,3-triazol-3-ium]
- IC50 compared with Tazo [17]: comparatively lower
